Assay results taken from patent US20080275085A1, “Piperidine derivative and use thereof” (priority 2007, published 2008).
pIC50: −log10 of the molar value. Counter-ions that a name gives are not always drawn.

These compounds were tested against T1, substance P receptor (Homo sapiens, UniProt P25103) (assay: Radioligand receptor binding inhibitory activity (125I-BHSP binding, receptor from IM-9 cells)). Settings: receptor from human lymphoblast cells (IM-9); radioligand 125I-BHSP; 25° C., 30 min.
T1 construct: The receptor was prepared from human lymphoblast cells (IM-9); endogenous in cells; host or cells: IM-9 human lymphoblast cells (membrane fraction, 100,000xG precipitate)
T1 sequence (P25103 whole entry): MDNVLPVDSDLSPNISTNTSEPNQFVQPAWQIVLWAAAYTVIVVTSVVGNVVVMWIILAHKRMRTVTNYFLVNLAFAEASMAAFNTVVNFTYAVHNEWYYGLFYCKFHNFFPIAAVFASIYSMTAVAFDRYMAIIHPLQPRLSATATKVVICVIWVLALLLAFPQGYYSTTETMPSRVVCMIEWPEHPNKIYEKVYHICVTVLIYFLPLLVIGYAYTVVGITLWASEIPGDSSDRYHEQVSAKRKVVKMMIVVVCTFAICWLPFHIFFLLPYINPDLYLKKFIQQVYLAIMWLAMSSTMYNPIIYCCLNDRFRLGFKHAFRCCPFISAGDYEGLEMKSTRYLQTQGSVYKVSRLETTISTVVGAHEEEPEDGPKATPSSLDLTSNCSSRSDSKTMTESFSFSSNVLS
Method: Radioligand Receptor Binding Inhibitory Activity (Binding Inhibitory Activity Using Receptor from Human Lymphoblast Cells (IM-9))
The method of M. A. Cascieri et al., “Molecular Pharmacology, vol. 42, p. 458 (1992)” was modified and used. The receptor was prepared from human lymphoblast cells (IM-9).
IM-9 cells (2×10^5 cells/mL) were inoculated and incubated for 3 days, which was then subjected to centrifugation for 10 min. at 500×G to give cell pellets. The obtained pellets were washed with PBS (GIBCO), disrupted in buffer A (50 mM tris.hydrochloric acid buffer (pH 7.4) containing 120 mM sodium chloride, 5 mM potassium chloride, 2 μg/mL chymostatin, 40 μg/mL bacitracin, 40 μg/mL APMSF, 1 mM ethylenediamine tetra acetic acid) using a polytron.homogenizer [manufactured by Kinematika, Germany], and centrifuged at 100,000×G for 40 min. The precipitated fraction was suspended in buffer B (50 mM Tris-HCl (pH 7.4), 0.02% bovine serum albumin, 2 μg/mL chymostatin, 40 μg/mL bacitracin, 40 μg/mL APMSF, 3 mM MgCl2), which was then cryopreserved (−80° C.) as a receptor specimen.
Buffer B (50 μL) was added to a 96 well microassay plate (CORNING). Thereto was added 50 μL of membrane preparation suspended in buffer B at 250 μg/mL. A measurement buffer (50 μL) containing 2% dimethyl sulfoxide was added to examine total binding; 4 μM unlabeled SP (50 μL) diluted with a measurement buffer containing 2% dimethyl sulfoxide was added to examine non-specific binding; and 50 μL of a test compound (containing 2% dimethyl sulfoxide) diluted with a measurement buffer was added to examine binding inhibitory activity of the test compound. In addition, […] ^125I-BHSP solution (50 μL) was added to each well.
After reaction at 25° C. for 30 min, the cells were rapidly filtered through a GF/C filter plate (PerkinElmer) using a cell harvester (manufactured by PerkinElmer) to quench the reaction, and washed 10 times with 250 μL of 50 mM tris-HCl buffer (pH 7.4) containing 0.02% bovine serum albumin. The GF/C filter plate was dried, MicroScinti 0 (20 μL) was added, and the radioactivity was measured with TopCount (manufactured by PerkinElmer). The GF/C filter plate was immersed in 0.3% polyethylene imine for one day before use.
Specific binding is a value obtained by subtracting nonspecific binding from total binding. The binding inhibitory activity of a test compound is shown by a ratio of a value obtained by subtracting a measurement value with addition of a test compound from the total binding, relative to specific binding.
The antagonistic activity of the compounds obtained in the Examples was determined as a concentration necessary for causing 50% inhibition (IC50 value) under the above-described conditions, and the results shown in Table 34 were obtained.
The radio ligand means substance P labeled with [^125I].

Row | Compound | pIC50
1 | Cc1ccccc1[C@H]1CN(C(=O)CN2C(=O)OC(C)(C)C2=O)CC[C@@H]1C(=O)N(C)[C@@H](C)c1cc(C(F)(F)F)cc(C(F)(F)F)c1 [Example 30, (3S,4S)—N-{(1S)-1-[3,5-bis(trifluoromethyl)phenyl]ethyl}-1-[(5,5-dimethyl-2,4-dioxo-1,3-oxazolidin-3-yl)acetyl]-N-methyl-3-(2-methylphenyl)piperidine-4-carboxamide] | 10.24
2 | Cc1cc(F)ccc1[C@@H]1CN(S(=O)(=O)CCN2CCOCC2)CC[C@H]1C(=O)N(C)Cc1cc(C(F)(F)F)cc(C(F)(F)F)c1 (relative stereo) [Example 139, (3R*,4R*)—N-[3,5-bis(trifluoromethyl)benzyl]-3-(4-fluoro-2-methylphenyl)-N-methyl-1-[(2-morpholin-4-ylethyl)sulfonyl]piperidine-4-carboxamide monohydrochloride] | 10.43
3 | Cc1cc(F)ccc1[C@@H]1CN(CC(N)=O)CC[C@H]1C(=O)N(Cc1cc(C(F)(F)F)cc(C(F)(F)F)c1)C1CC1 (relative stereo) [Example 169, (3R*,4R*)-1-(2-amino-2-oxoethyl)-N-[3,5-bis(trifluoromethyl)benzyl]-N-cyclopropyl-3-(4-fluoro-2-methylphenyl)piperidine-4-carboxamide monohydrochloride] | 10.11
4 | Cc1cc(F)ccc1[C@H]1CN(C(=O)CCS(C)(=O)=O)CC[C@@H]1C(=O)N(C)[C@@H](C)c1cc(C(F)(F)F)cc(C(F)(F)F)c1 [Example 160, (3S,4S)—N-{(1S)-1-[3,5-bis(trifluoromethyl)phenyl]ethyl}-3-(4-fluoro-2-methylphenyl)-N-methyl-1-[3-(methylsulfonyl)propanoyl]piperidine-4-carboxamide] | 10.49
5 | Cc1cc(F)ccc1[C@H]1CN(S(C)(=O)=O)CC[C@@H]1C(=O)N(C)[C@@H](C)c1cc(C(F)(F)F)cc(C(F)(F)F)c1 [Example 179, (3S,4S)—N-{(1S)-1-[3,5-bis(trifluoromethyl)phenyl]ethyl}-3-(4-fluoro-2-methylphenyl)-N-methyl-1-(methylsulfonyl)piperidine-4-carboxamide] | 10.31
6 | CC(=O)Nc1ccc(N2CC[C@@H](C(=O)N(C)Cc3cc(C(F)(F)F)cc(C(F)(F)F)c3)[C@H](c3ccc(F)cc3C)C2)nc1 (relative stereo) [Example 129, (3R*,4R*)-1-[5-(acetylamino)pyridin-2-yl]-N-[3,5-bis(trifluoromethyl)benzyl]-3-(4-fluoro-2-methylphenyl)-N-methylpiperidine-4-carboxamide monohydrochloride] | 10.02
7 | Cc1cc(F)ccc1[C@H]1CN(C(=O)CN2C(=O)OC(C)(C)C2=O)CC[C@@H]1C(=O)N(C)[C@@H](C)c1cc(C(F)(F)F)cc(C(F)(F)F)c1 [Example 154, (3S,4S)—N-{(1S)-1-[3,5-bis(trifluoromethyl)phenyl]ethyl}-1-[(5,5-dimethyl-2,4-dioxo-1,3-oxazolidin-3-yl)acetyl]-3-(4-fluoro-2-methylphenyl)-N-methylpiperidine-4-carboxamide] | 10.01
8 | Cc1cc(F)ccc1[C@H]1CN(C(=O)CN2C(=O)OC(C)(C)C2=O)CC[C@@H]1C(=O)N(C)Cc1cc(C(F)(F)F)cc(C(F)(F)F)c1 [Example 148, (3S,4S)—N-[3,5-bis(trifluoromethyl)benzyl]-1-[(5,5-dimethyl-2,4-dioxo-1,3-oxazolidin-3-yl)acetyl]-3-(4-fluoro-2-methylphenyl)-N-methylpiperidine-4-carboxamide] | 10.22
9 | Cc1cc(F)ccc1[C@H]1CN(C(=O)c2cncnc2)CC[C@@H]1C(=O)N(C)[C@@H](C)c1cc(C(F)(F)F)cc(C(F)(F)F)c1 [Example 158, (3S,4S)—N-{(1S)-1-[3,5-bis(trifluoromethyl)phenyl]ethyl}-3-(4-fluoro-2-methylphenyl)-N-methyl-1-(pyrimidin-5-ylcarbonyl)piperidine-4-carboxamide] | 10.48
10 | Cc1cc(F)ccc1[C@@H]1CN(CCC(C)(C)O)CC[C@H]1C(=O)N(C)Cc1cc(C(F)(F)F)cc(C(F)(F)F)c1 (relative stereo) [Example 123, (3R*,4R*)—N-[3,5-bis(trifluoromethyl)benzyl]-3-(4-fluoro-2-methylphenyl)-1-(3-hydroxy-3-methylbutyl)-N-methylpiperidine-4-carboxamide monohydrochloride] | 10.60

Further lines, results first:

Row | pIC50 | Compound
11 | 10.70 | Cc1cc(F)ccc1[C@H]1CN(C(=O)C2CCN(C(=O)[C@@H](C)O)CC2)CC[C@@H]1C(=O)N(C)Cc1cc(C(F)(F)F)cc(C(F)(F)F)c1 [Example 151, (3S,4S)—N-[3,5-bis(trifluoromethyl)benzyl]-3-(4-fluoro-2-methylphenyl)-1-({1-[(2R)-2-hydroxypropanoyl]piperidin-4-yl}carbonyl)-N-methylpiperidine-4-carboxamide]
12 | 10.82 | Cc1cc(F)ccc1[C@H]1CN(C(=O)C2CCN(C(=O)CO)CC2)CC[C@@H]1C(=O)N(C)Cc1cc(C(F)(F)F)cc(C(F)(F)F)c1 [Example 149, (3S,4S)—N-[3,5-bis(trifluoromethyl)benzyl]-3-(4-fluoro-2-methylphenyl)-1-[(1-glycoloylpiperidin-4-yl)carbonyl]-N-methylpiperidine-4-carboxamide]
13 | 10.37 | Cc1cc(F)ccc1[C@@H]1CN(C(C)CO)CC[C@H]1C(=O)N(C)Cc1cc(C(F)(F)F)cc(C(F)(F)F)c1 (relative stereo) [Example 120, (3R*,4R*)—N-[3,5-bis(trifluoromethyl)benzyl]-3-(4-fluoro-2-methylphenyl)-1-(2-hydroxy-1-methylethyl)-N-methylpiperidine-4-carboxamide monohydrochloride]
14 | 10.21 | Cc1cc(F)ccc1[C@@H]1CN(C(C)(C)C(N)=O)CC[C@H]1C(=O)N(C)Cc1cc(C(F)(F)F)cc(C(F)(F)F)c1 (relative stereo) [Example 113, (3R*,4R*)-1-(2-amino-1,1-dimethyl-2-oxoethyl)-N-[3,5-bis(trifluoromethyl)benzyl]-3-(4-fluoro-2-methylphenyl)-N-methylpiperidine-4-carboxamide monohydrochloride]
15 | 10.02 | Cc1cc(F)ccc1[C@@H]1CN(CC(=O)NC2CC2)CC[C@H]1C(=O)N(C)Cc1cc(C(F)(F)F)cc(C(F)(F)F)c1 (relative stereo) [Example 103, (3R*,4R*)—N-[3,5-bis(trifluoromethyl)benzyl]-1-[2-(cyclopropylamino)-2-oxoethyl]-3-(4-fluoro-2-methylphenyl)-N-methylpiperidine-4-carboxamide monohydrochloride]
16 | 10.66 | Cc1ccccc1[C@H]1CN(C(=O)C2CCN(C(=O)[C@H](C)O)CC2)CC[C@@H]1C(=O)N(C)Cc1cc(C(F)(F)F)cc(C(F)(F)F)c1 [Example 28, (3S,4S)—N-(3,5-bis(trifluoromethyl)benzyl]-1-({1-[(2S)-2-hydroxypropanoyl]piperidin-4-yl}carbonyl)-N-methyl-3-(2-methylphenyl)piperidine-4-carboxamide]
17 | 10.59 | Cc1cc(F)ccc1[C@@H]1CN(C2CCN(C(=O)C(N)=O)CC2)CC[C@H]1C(=O)N(C)Cc1cc(C(F)(F)F)cc(C(F)(F)F)c1 (relative stereo) [Example 108, (3R*,4R*)-1′-[amino(oxo)acetyl]-N-[3,5-bis(trifluoromethyl)benzyl]-3-(4-fluoro-2-methylphenyl)-N-methyl-1,4′-bipiperidine-4-carboxamide monohydrochloride]
18 | 10.62 | Cc1ccccc1[C@H]1CN(C(=O)C2CCN(C(=O)CO)CC2)CC[C@@H]1C(=O)N(C)Cc1cc(C(F)(F)F)cc(C(F)(F)F)c1 [Example 18, (3S,4S)—N-[3,5-bis(trifluoromethyl)benzyl]-1-[[1-glycoloylpiperidin-4-yl]carbonyl]-N-methyl-3-(2-methylphenyl)piperidine-4-carboxamide]
19 | 10.38 | Cc1cc(F)ccc1[C@@H]1CN(CC(=O)N2CCC(O)CC2)CC[C@H]1C(=O)N(C)Cc1cc(C(F)(F)F)cc(C(F)(F)F)c1 (relative stereo) [Example 104, (3R*,4R*)—N-[3,5-bis(trifluoromethyl)benzyl]-3-(4-fluoro-2-methylphenyl)-1-[2-(4-hydroxypiperidin-1-yl)-2-oxoethyl]-N-methylpiperidine-4-carboxamide monohydrochloride]
